No end group written: not given here.
Assays:
[1] = test system: DENV-4; assay: Plaque reduction neutralization assay, DENV-4; type: cell-based, Dengue virus serotype 4; conditions: Vero cells; virus pre-incubated with peptide 1 h at 37° C.; read-out: DENV-4 PRNT50
Experimental: (§1) Vero cells were seeded at 1×10^5 cells per well and incubated overnight. Twofold serial dilutions of peptide were incubated with 200-300 p.f.u. of virus for 1 h at 37° C. Cells were infected with the virus-peptide mixture for 1 h at 37° C. The inoculum was removed and 0.8% (wt/vol) methylcellulose in medium supplemented with 1% FBS was added. After 3-5 days incubation, plates were fixed and analysed for plaques by immunostaining (DENV). For immunostaining, the cells were fixed, followed by incubation with 4G2, a mouse anti-DENV E protein monoclonal antibody (1:2,000 dilution), for 16-20 h. After addition of a secondary antibody, goat anti-mouse IgG (H+L)-HRP conjugate (1:2,000 dilution), the TrueBlue peroxidase substrate (KPL) was added and the optical density was measured at a wavelength of 450 nm. For crystal violet staining, cells were fixed with fixing solution (5% glutaric dialdehyde in Dulbecco's PBS) followed by staining with 0.1% crystal violet in fixing solution. The IC50 value was calculated by comparing the relative number of plaques in peptide-treated samples to virus-only samples using a four-parameter logistic curve fit.

[2] = test system: DENV-2; assay: Plaque reduction neutralization assay, DENV-2; type: cell-based, Dengue virus serotype 2; conditions: Vero cells; virus pre-incubated with peptide 1 h at 37° C.; read-out: DENV-2 PRNT50
Experimental: as §1

[3] = test system: DENV-3; assay: Plaque reduction neutralization assay, DENV-3; type: cell-based, Dengue virus serotype 3; conditions: Vero cells; virus pre-incubated with peptide 1 h at 37° C.; read-out: DENV-3 PRNT50
Experimental: as §1

[4] = test system: DENV-1; assay: Plaque reduction neutralization assay, DENV-1; type: cell-based, Dengue virus serotype 1; conditions: Vero cells; virus pre-incubated with peptide 1 h at 37° C.; read-out: DENV-1 PRNT50
Experimental: as §1

[5] = Time-lapse fluorescence microscopy imaging of peptide-induced vesicle rupture
Experimental: Highly parallel measurements of peptide-induced liposome rupture were conducted by time-lapsed epifluorescence microscopy imaging. An Eclipse Ti-E inverted microscope (Nikon) with a high-pressure mercury lamp, a CFI Plan Apochromat TIRF×60 oil-immersion objective (NA 1.49; Nikon) and an Andor iXon3 897 EMCCD camera (Andor Technology), was utilized for measurements. The samples were illuminated with a mercury lamp (Intenslight C-HGFIE) using a TRITC filter set. Briefly, glass coverslips were assembled into a microfluidic flow cell, and coated with a thin layer of PLL-g-PEG(-biotin), followed by tethering of 0.025 μg ml^−1 liposomes via biotin-neutravidin coupling. Peptide was then added at a volumetric rate of 100 μl min^−1, and micrographs were recorded every 5-30 s depending on the particular experiment. The initial time was defined by when the peptide solution entered the channel inlet. Data processing and analysis were conducted using ImageJ (National Institutes of Health) and Python(x,y) software packages. The diameter of individual liposomes was estimated based on fluorescence intensity values. […]
Using time-lapse fluorescence microscopy imaging, we further investigated the interactions of different versions of Peptides 2 and 4 with tethered vesicles at the single-vesicle level and saw different degrees of vesicle rupture in terms of total extent and speed (FIG. 14).

SDDWLRIIWDWVCSVVSDFKAWLSAKI [Peptide N5N]
IC50 [1]: 338 nM | IC50 [2]: 545 nM | IC50 [3]: 1380 nM | IC50 [4]: 236 nM

SDDWLRIIWDWVCSVVSDFKAWLSAKI [Peptide N5O]
IC50 [1]: 649 nM | IC50 [2]: 838 nM | IC50 [3]: 1590 nM | IC50 [4]: 235 nM

SDDWLRIIWDWVCSVVSDFKAWLSAKI [Peptide O5O]
IC50 [1]: 278 nM | IC50 [2]: 164 nM | IC50 [3]: 176 nM | IC50 [4]: 37.2 nM

SDDWLRTIWDWVCSVLADFKAWLSAKI (Synthetic_Anti-viral peptide derived from hepatitis C virus NS5A protein) [Peptide 7]
Vesicle rupture time, calcein (Cal) dye release ([5]; 100 nM peptide): 2.41 ± 0.06 min | Vesicle rupture time, rhodamine (Rh) dye release ([5]; 100 nM peptide): 5.50 ± 0.11 min | Vesicle rupture time, calcein (Cal) dye release ([5]; 1000 nM peptide): 1.47 ± 0.01 min | Vesicle rupture time, rhodamine (Rh) dye release ([5]; 1000 nM peptide): 2.13 ± 0.00 min

SDDWLRTIWDWVCSVLADFKAWLSAKI [Peptide N7N]
IC50 [1]: 242 nM | IC50 [2]: 562 nM | IC50 [3]: 1140 nM | IC50 [4]: 171 nM

SDDWLRTIWDWVCSVLADFKAWLSAKI [Peptide N7O]
IC50 [1]: 198 nM | IC50 [2]: 1880 nM | IC50 [3]: 2380 nM | IC50 [4]: 723 nM

SDDWLRTIWDWVCSVLADFKAWLSAKI [Peptide O7O]
IC50 [1]: 433 nM | IC50 [2]: 299 nM | IC50 [3]: 213 nM | IC50 [4]: 36 nM

SGDWLRIIWDWVCSVVSDFKTWLSAKI (Synthetic_Anti-viral peptide derived from hepatitis C virus NS5A protein) [Peptide 6]
Vesicle rupture time, calcein (Cal) dye release ([5]; 100 nM peptide): 2.46 ± 0.02 min | Vesicle rupture time, rhodamine (Rh) dye release ([5]; 100 nM peptide): 4.75 ± 0.06 min | Vesicle rupture time, calcein (Cal) dye release ([5]; 1000 nM peptide): 1.57 ± 0.03 min | Vesicle rupture time, rhodamine (Rh) dye release ([5]; 1000 nM peptide): 2.74 ± 0.03 min

SGDWLRIIWDWVCSVVSDFKTWLSAKI [Peptide N6N]
IC50 [1]: 165 nM | IC50 [2]: 536 nM | IC50 [3]: 2780 nM | IC50 [4]: 162 nM

SGDWLRIIWDWVCSVVSDFKTWLSAKI [Peptide N6O]
IC50 [1]: 273 nM | IC50 [2]: 554 nM | IC50 [3]: 1470 nM | IC50 [4]: 218 nM

SGDWLRIIWDWVCSVVSDFKTWLSAKI [Peptide O6O]
IC50 [1]: 273 nM | IC50 [2]: 412 nM | IC50 [3]: 334 nM | IC50 [4]: 68 nM

SGSWLRDIWDWICEVLSDFKTWLKAKL (Synthetic_Anti-viral peptide derived from hepatitis C virus NS5A protein) [Peptide 1]
Vesicle rupture time, calcein (Cal) dye release ([5]; 100 nM peptide): 5.95 ± 0.03 min | Vesicle rupture time, rhodamine (Rh) dye release ([5]; 100 nM peptide): 10.58 ± 0.33 min | Vesicle rupture time, calcein (Cal) dye release ([5]; 1000 nM peptide): 4.67 ± 0.32 min | Vesicle rupture time, rhodamine (Rh) dye release ([5]; 1000 nM peptide): 6.13 ± 0.09 min

SGSWLRDIWDWICEVLSDFKTWLKAKL [Peptide N1N]
IC50 [1]: 1100 nM | IC50 [2]: 402 nM | IC50 [3]: 3230 nM | IC50 [4]: 218 nM

SGSWLRDIWDWICEVLSDFKTWLKAKL [Peptide N1O]
IC50 [1]: 294 nM | IC50 [2]: 363 nM | IC50 [3]: 974 nM | IC50 [4]: 219 nM

SGSWLRDIWEWVCSILTDFKNWLSAKL (Synthetic_Anti-viral peptide derived from hepatitis C virus NS5A protein) [Peptide 4]
Vesicle rupture time, calcein (Cal) dye release ([5]; 100 nM peptide): 6.50 ± 0.3 min | Vesicle rupture time, rhodamine (Rh) dye release ([5]; 100 nM peptide): 21.13 ± 0.38 min | Vesicle rupture time, calcein (Cal) dye release ([5]; 1000 nM peptide): 3.71 ± 0.07 min | Vesicle rupture time, rhodamine (Rh) dye release ([5]; 1000 nM peptide): 9.51 ± 0.09 min

SGSWLRDVWDWICTVLTDFKTWLQSKL [O2O] (not fully specified) [Peptide O2O, Peptide 2 with O and O terminal endings]
Dependence of vesicle rupture on vesicle size (membrane-curvature sensing), single-vesicle analysis ([5]; small and large tethered vesicles): have membrane-curvature sensing mechanisms

SGSWLRDVWDWICTVLTDFKTWLQSKL [Peptide 2]
Vesicle rupture time, calcein (Cal) dye release ([5]; 100 nM peptide): 5.54 ± 0.30 min | Vesicle rupture time, rhodamine (Rh) dye release ([5]; 100 nM peptide): 8.69 ± 0.08 min | Vesicle rupture time, calcein (Cal) dye release ([5]; 1000 nM peptide): 1.91 ± 0.04 min | Vesicle rupture time, rhodamine (Rh) dye release ([5]; 1000 nM peptide): 3.13 ± 0.12 min

SGSWLRDVWDWVCTILTDFKNWLTSKL [Peptide 3]
Vesicle rupture time, calcein (Cal) dye release ([5]; 100 nM peptide): 4.53 ± 0.17 min | Vesicle rupture time, rhodamine (Rh) dye release ([5]; 100 nM peptide): 8.41 ± 0.08 min | Vesicle rupture time, calcein (Cal) dye release ([5]; 1000 nM peptide): 1.97 ± 0.11 min | Vesicle rupture time, rhodamine (Rh) dye release ([5]; 1000 nM peptide): 2.99 ± 0.03 min
